The values that follow come from patent publication US9540338B2, “Substituted cinnamic acid amides for treating pain” (NIPPON ZOKI PHARMACEUTICAL CO., LTD., priority 2012, dated 2017).

The structures appear in SMILES notation. Where a name gives a salt, the structure may show the parent alone. Marks after values point to notes of the source that are not given here.

The subject of one data set is Chung model rat. The data set is described as follows: Analgesic efficacy test (2): Chung model rat, neuropathic pain model (allodynia, von Frey filament). To be noted: mean ± standard error. The class given is in vivo, rats. How it is done: An analgesic efficacy test was conducted using a Chung model rat, a neuropathic pain model. Nine-week old Wistar male rats were previously bred as an experimental animal, and a model rat was then prepared in accordance with the method of Kim and Chung (Pain, 50, 355-363, 1992). Specifically, left L5 spinal nerves of rats were exposed under anesthetization with pentobarbital (40 mg/kg, intraperitoneal administration), and firmly ligated with 5-0 silk yarn at L5 dorsal root ganglion peripheral side. The animals were placed in a transparent acrylic cage of which bottom was wire netted The measurement of allodynia was carried out using von Frey filament (manufactured by North Coast Medical Inc.) and a 50% reaction threshold was calculated according to an up-down method, in accordance with a method of Chaplan et al. (J. Neurosci. Method, 53, 55-63, 1994). The 50% reaction thresholds were measured twice before injury of the spinal nerve, and those animals of which thresholds were outside the standard were removed from the operation of spinal nerve injury. On or after 14 days from the spinal nerve injury, a 50% reaction threshold was measured, and those showing thresholds of 1 g or more and less than 4 g were used as experimental animal. The group was constituted by 7 or 8 rats per group so that an average of a 50% reaction threshold for each group would be nearly even.
A solution or suspension prepared by dissolving or suspending a compound of the present invention in a 0.5% (w/v) aqueous CMC-Na solution was orally administered as a test substance in a single dose. Also, a 0.5% (w/v) aqueous CMC-Na solution was administered in the same manner to the control group for nerve injury. The measurements of allodynia were carried out with the passage of time after administration, and a 50% reaction threshold (mean±standard error) of each group at action peak was calculated. In the test for significance difference, Bartlett's test was carried out in the comparison between multiple groups of the group administered with test substance with the control group for nerve injury. In the case of homoscedasticity, Dunnett's multiple comparison test of parametrics, and in the case of heteroscedasticity, Dunnett's multiple comparison test of non-parametrics were used. In all cases, significance difference was considered to be found at P<0.05 (indicated as “*” in the tables).

Where [1] appears, read: oral 1 mg/kg, measurement point 90 minute (action peak).
[2] abbreviates: oral 10 mg/kg, measurement point 90 minute (action peak).
[3] abbreviates: oral 1 mg/kg, measurement point 60 minute (action peak).
Setting [4] is: oral 10 mg/kg, measurement point 60 minute (action peak).

The term melting point denotes the temperature, or range, at which the solid turns liquid. As for `Cl.O=C(/C=C/c1ccccc1F)NCCc1cccnc1`, the melting point fell in the range of 116 to 117 °C.

`CN(C)CCCCNC(=O)/C=C/c1ccccc1F.Cl` registered a melting point of 107 to 108 °C. For the compound `Cl.O=C(/C=C/c1cccc(C(=O)O)c1)NCCn1ccnc1`, the melting point is 195 to 197 °C. Same read-out and setting: under `Cl.O=C(/C=C/c1ccc(C(=O)O)cc1)NCCn1ccnc1` stands 237 to 238 °C; under `Cl.O=C(/C=C/c1ccccc1C(F)(F)F)NCCCN1CCOCC1`, 197 to 198 °C; under `Cl.O=C(/C=C/c1ccccc1F)NCCCN1CCCCC1`, 166 to 167 °C.

Compound `Cl.O=C(/C=C/c1ccccc1F)NCCCNC1CCCCC1` registered a melting point of 227 to 228 °C. On the same count and under the same terms, under `C/C(=C\c1ccccc1F)C(=O)NCCCN1CC[S+]([O-])CC1.Cl` stands 180 to 181 °C; under `O=C(/C=C/c1ccccc1F)NCCCN1CCNCC1` (as salt: hydrochloride), 143 to 144 °C; under `O=C(/C=C/c1ccccc1F)NCCc1ccccn1` (as salt: hydrochloride) [Compound 9, (E)-3-(2-Fluorophenyl)-N-[2-(2-pyridyl)ethyl]-2-propenamide hydrochloride], 86 to 87 °C. The same measure, in the same setting: under `CN1CCN(CCCNC(=O)/C=C/c2ccccc2F)CC1` (as salt: hydrochloride) [Compound 15, (E)-3-(2-Fluorophenyl)-N-[3-(4-methylpiperazin-1-yl)propyl]-2-propenamide dihydrochloride] stands 133 to 138 °C.

With `O=C(/C=C/c1ccccc1F)NCCN1CCNCC1` (as salt: hydrochloride) [Compound 16, (E)-3-(2-Fluorophenyl)-N-[2-(piperazin-1-yl)ethyl]-2-propenamide dihydrochloride], the melting point fell in the range of 212 to 213 °C. On the same count and under the same terms, under `Nc1ccccc1CCNC(=O)/C=C/c1ccccc1F` [Compound 19, (E)-N-[2-(2-Aminophenyl)ethyl]-3-(2-fluorophenyl)-2-propenamide] stands 128 to 129 °C; under `O=C(/C=C/c1ccccc1F)NCCn1cnc2ccccc21` [Compound 22, (E)-N-[2-(Benzoimidazol-1-yl)ethyl]-3-(2-fluorophenyl)-2-propenamide], 143 to 145 °C. In the case of `O=C(/C=C/c1ccc(F)cc1F)NCCn1ccnc1` [Compound 23, (E)-3-(2,4-Difluorophenyl)-N-[2-(imidazol-1-yl)ethyl]-2-propenamide], the melting point is 113 to 115 °C. Moreover, the “50% Reaction Threshold, Group Administered with Test Substance, After Administration” value (“50% Reaction Threshold” for short) in the data set on Chung model rat (setting [1]) is on record as 8.22 ± 1.43* g. Further, in the data set with Chung model rat (setting [2]), the “50% Reaction Threshold” value is on record as 9.81 ± 1.27* g. In the case of `O=C(/C=C/c1cc(F)ccc1F)NCCn1ccnc1` [Compound 24, (E)-3-(2,5-Difluorophenyl)-N-[2-(imidazol-1-yl)ethyl]-2-propenamide], the melting point is 118 to 120 °C. Also, the “50% Reaction Threshold” value in the data set on Chung model rat (setting [3]) is given as 4.63 ± 0.36 g. Besides, in the data set with Chung model rat (setting [4]), the “50% Reaction Threshold” value is listed as 7.85 ± 0.99* g. The like results for `O=C(/C=C/c1cccc(F)c1)NCCCN1CCOCC1` [Compound 25, (E)-3-(3-Fluorophenyl)-N-(3-morpholinopropyl)-2-propenamide] were, in that order, 80 to 81 °C, 8.17 ± 1.09* g and 9.68 ± 1.20* g. The like results for `O=C(/C=C/c1ccc(F)cc1)NCCCN1CCOCC1` [Compound 26, (E)-3-(4-Fluorophenyl)-N-(3-morpholinopropyl)-2-propenamide] were, in that order, 88 to 89 °C, 10.25 ± 1.07* g and 14.33 ± 0.67* g.

As to `O=C(/C=C/c1cccc(F)c1F)NCCCN1CCOCC1` [Compound 27, (E)-3-(2,3-Difluorophenyl)-N-(3-morpholinopropyl)-2-propenamide], the melting point was 97 to 99 °C.

`O=C(/C=C/c1ccc(F)cc1F)NCCCN1CCOCC1` [Compound 28, (E)-3-(2,4-Difluorophenyl)-N-(3-morpholinopropyl)-2-propenamide] yielded a melting point of 94 to 95 °C. Also, in the data set on Chung model rat (setting [3]), the “50% Reaction Threshold” value is reported as 8.44 ± 1.81* g. In addition, in the data set on Chung model rat (setting [4]), the “50% Reaction Threshold” value is recorded as 12.05 ± 1.44* g. Take `O=C(/C=C/c1c(F)cccc1F)NCCCN1CCOCC1` [Compound 30, (E)-3-(2,6-Difluorophenyl)-N-(3-morpholinopropyl)-2-propenamide]: the melting point fell in the range of 75 to 76 °C. `O=C(/C=C/c1ccc(F)c(F)c1)NCCCN1CCOCC1` [Compound 31, (E)-3-(3,4-Difluorophenyl)-N-(3-morpholinopropyl)-2-propenamide] returned a melting point of 127 to 128 °C.

`O=C(/C=C/c1ccc(C(F)(F)F)cc1F)NCCCN1CCOCC1` [Compound 32, (E)-3-(2-Fluoro-4-trifluoromethylphenyl)-N-(3-morpholinopropyl)-2-propenamide] returned a melting point of 102 to 103 °C. Same read-out and setting: under `O=C(/C=C/c1ccccc1F)NCCN1CCCC1` [Compound 35, (E)-3-(2-Fluorophenyl)-N-[2-(pyrrolidin-1-yl)ethyl]-2-propenamide] stands 83 to 84 °C; under `O=C(/C=C/c1ccccc1F)NCCN1CCCCCC1` [Compound 36, (E)-N-[(2-Azepan-1-yl)ethyl]-3-(2-fluorophenyl)-2-propenamide], 80 to 81 °C; under `COc1ccc(CCNC(=O)/C=C/c2ccccc2F)cc1` [Compound 37, (E)-3-(2-Fluorophenyl)-N-[2-(4-methoxyphenyl)ethyl]-2-propenamide], 123 to 124 °C. `O=C(/C=C/c1ccccc1F)NCCn1cncn1` [Compound 39, (E)-3-(2-Fluorophenyl)-N-[2-([1,2,4]triazol-1-yl)ethyl]-2-propenamide dihydrochloride]: the “50% Reaction Threshold” value with Chung model rat (setting [1]) is on record as 3.55 ± 0.59 g; in the data set with Chung model rat (setting [2]), 4.05 ± 0.48* g.

Compound `O=C(/C=C/c1ccccc1F)NCCn1ccc2ccccc21` [Compound 41, (E)-3-(2-Fluorophenyl)-N-[2-(indol-1-yl)ethyl]-2-propenamide] displayed a melting point of 96 to 98 °C. The same measure, in the same setting: for `O=C(/C=C/c1ccccc1F)NCCn1ccnc1-c1ccccc1` [Compound 44, (E)-3-(2-Fluorophenyl)-N-[2-(2-phenylimidazol-1-yl)ethyl]-2-propenamide] the value was 163 to 164 °C. For `Cl.O=C(/C=C/c1ccccc1F)NCCCn1ccnc1` [Compound 45, (E)-3-(2-Fluorophenyl)-N-[3-(imidazol-1-yl)propyl]-2-propenamide hydrochloride], the “50% Reaction Threshold” value in the data set with Chung model rat (setting [1]) was 8.81 ± 1.05* g; in the data set with Chung model rat (setting [2]), 12.23 ± 1.10* g. With `O=C(/C=C/c1ccccc1C(=O)O)NCCn1ccnc1` [Compound 47, (E)-3-(2-Carboxyphenyl)-N-[(2-imidazol-1-yl)ethyl]-2-propenamide], the entries for the “50% Reaction Threshold” value with Chung model rat (setting [3]) and with Chung model rat (setting [4]) were 10.58 ± 1.74* g and 13.58 ± 0.67* g, respectively. `O=C(/C=C/c1ccccc1F)Nc1ccc(-c2ccn[nH]2)cc1` [Compound 51, (E)-3-(2-Fluorophenyl)-N-[4-(2H-pyrazol-3-yl)phenyl]-2-propenamide] gave a melting point of 116 to 118 °C.

On to `O=C(/C=C/c1ccccc1F)Nc1cccc(-c2ccn[nH]2)c1` [Compound 52, (E)-3-(2-Fluorophenyl)-N-[3-(2H-pyrazol-3-yl)phenyl]-2-propenamide], for which the “50% Reaction Threshold” value in the data set with Chung model rat (oral 1 mg/kg, measurement point 30 minute (action peak)) is given as 7.42 ± 1.14* g; in the data set with Chung model rat (oral 10 mg/kg, measurement point 30 minute (action peak)), 9.12 ± 2.00* g. `O=C(/C=C/c1ccccc1F)Nc1ccc(-c2ccno2)cc1` [Compound 53, (E)-3-(2-Fluorophenyl)-N-[4-(isoxazol-5-yl)phenyl]-2-propenamide] came in with a melting point of 204 to 206 °C.

On to `N#C/C(=C\c1ccc(F)cc1)C(=O)NCCCN1CCOCC1` [Compound 58, (E)-2-Cyano-3-(4-fluorophenyl)-N-(3-morpholinopropyl)-2-propenamide], for which the melting point is 110 to 111 °C.

`O=C(O)CCNC(=O)/C=C/c1ccccc1F` [Compound 66, 3-{[(E)-3-(2-Fluorophenyl)-2-propenoyl]amino}propanoic acid] had a melting point of 193 to 195 °C.
